Entries after “also recorded” stand apart in the source; their conditions may differ.
Assays:
[1] = test system: LPS-induced (infection-associated) preterm labor and delivery in pregnant C57B1/6 mice; assay: Animal model of preterm birth (LPS-injected timed pregnant mice); assay type: in vivo, mouse
Method: Animal models of preterm birth. The Animal Care and Utilization Committee of the College of Pharmacy and Allied Health Professions, St. John's University approved all experimental protocols, and the research was conducted according to the requirements of NIH Guide for the Care and Use of Laboratory Animals (revised 1996). C57B1/6 mice from Taconic Laboratory were used for all experiments. Animals were housed in plastic cages in a temperature-controlled animal facility with alternating 12:12 hour light-dark cycles, with ad libitum access to food and water.
Nineteen timed pregnant C57B1/6 E15.5 mice were injected with LPS in 0.5 ml PBS at a concentration of 50 mg/kg. These mice were randomly assigned to two groups. Group A mice (n=8) received 50 mg/kg HJP272 dissolved in PBS and Group B mice (n=11) received PBS only.
All treatments were administered by ip injection 10 hours after LPS injection. Mice were continually monitored and the time of delivery of all pups, as well as the number of pups delivered, was recorded. All mice were autopsied at the end of the experiment to confirm pregnancy and to determine the number of pups retained in utero.

[2] = molecular target: T1, BioXTal ET-B receptor (Homo sapiens, UniProt P24530); assay: In vitro competitive binding assay with [125I]Tyr13-ET-1, ET-B receptor; conditions: selectivity ETA versus ETB; ET-B assays in duplicate
T1 construct: purchased BioXTal
T1 sequence (P24530 27-442): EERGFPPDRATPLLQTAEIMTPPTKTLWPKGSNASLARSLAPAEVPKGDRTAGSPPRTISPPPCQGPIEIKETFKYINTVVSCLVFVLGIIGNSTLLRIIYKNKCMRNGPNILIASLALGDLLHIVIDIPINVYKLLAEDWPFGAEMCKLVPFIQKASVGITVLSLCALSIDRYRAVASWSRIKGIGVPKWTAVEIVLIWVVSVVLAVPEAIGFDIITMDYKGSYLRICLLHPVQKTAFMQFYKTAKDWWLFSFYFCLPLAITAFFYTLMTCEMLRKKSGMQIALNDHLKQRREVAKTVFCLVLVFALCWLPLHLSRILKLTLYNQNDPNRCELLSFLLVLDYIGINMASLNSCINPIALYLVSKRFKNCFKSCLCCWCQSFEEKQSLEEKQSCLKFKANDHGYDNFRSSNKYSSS
Method: (§1) In vitro binding assay. Varying concentrations of HJP272, ranging from 10^3 to 10^8 pM, were incubated with 10 ug of BioXTal ET-A or ET-B receptor and 224 pM [^125I]Tyr13-ET-1 in 50 mM NaH2PO4, 150 mM NaCl, 5 mM EDTA, and 0.1% bovine serum albumin.
(§2) For total binding, radio labeled ET-1 and receptor were incubated without the receptor antagonist. For non-specific binding, 300 nM cold ET-1 was substituted for the antagonist. Assay mixtures were incubated at 30 to 32° C. for two hours and the assays were stopped by the addition of cold buffer. Assay mixtures were then quickly filtered through GF/C Whatman filters and washed with cold assay buffer in a Millipore sampling manifold. Filters were collected and counts per minute of the bound radio labeled ET-1 were read by a Packard Cobra Gamma Counter (Perkin Elmer).
(§3) Percent specific binding was calculated for all data points. Assays containing ET-A receptor were run in triplicate and assays containing the ET-B receptor were run in duplicate.

[3] = test system: BALF neutrophils in female Syrian hamsters; assay: Animal model of smoking related acute lung injury (ET-1 plus cigarette smoke, BALF neutrophils); assay type: in vivo, hamster; conditions: 500 μg IP 60 minutes before 5 μg ET-1, then cigarette smoke two hours, three days
Method: Animal models of smoking related acute lung injury. The Animal Care and Utilization Committee of the College of Pharmacy and Allied Health Professions, St. John's University approved all experimental protocols, and the research was conducted according to the requirements of NIH Guide for the Care and Use of Laboratory Animals (revised 1996).
Female Syrian hamsters, weighing approximately 100 g each, were divided into two groups as follows: Group 1 was treated IP with: 1) 500 μg of HJP272 in 0.5 mL Na2CO3 and 2) 5 μg ET-1 in 0.25 mL PBS 60 minutes later, followed immediately by exposure to cigarette smoke for two hours. This regimen was continued for three days.
Group 2 was treated IP with: 1) 0.5 mL Na2CO3 and 2) […] ET-1 in 0.25 mL PBS 60 minutes later, followed immediately by exposure to cigarette smoke for three consecutive days as per Group 1. The animals were placed in a 70×48×38 cm chamber and passively exposed to cigarette smoke produced by a TE-10 smoking machine (Teague Enterprises, Davis, Calif.) that simultaneously burned two filtered research-grade cigarettes (type 2R4F, University of Kentucky). Smoke from both the filtered and burning ends of the cigarette was collected, and then mixed together with air in a separate chamber, thus simulating second-hand smoke exposure. Each cigarette was puffed once per minute for two seconds at a flow rate of 1.05 LPM, yielding 35 mL of smoke. This cycle was repeated nine times before ejecting the cigarette and loading a new one. Proper flow rate was maintained by a vacuum pump that established negative pressure at the exhaust port. Total smoke particulates averaged 87 mg per cubic meter.
All animals were sacrificed 24 hours after completing the smoke exposure regimen to maximize the neutrophil population in the lung, and the percentage of BALF neutrophils was measured (van der Vaart et al. 2004)

[4] = molecular target: T2, BioXTal ET-A receptor (Homo sapiens, UniProt P25101); assay: In vitro competitive binding assay with [125I]Tyr13-ET-1, ET-A receptor; conditions: [125I]ET-1 224 pM; 10 ug receptor; 30 to 32° C., two hours; triplicate; read-out: IC50, inhibition of specific [125I] ET-1 binding to ETA receptor
T2 construct: purchased BioXTal
T2 sequence (P25101 21-427): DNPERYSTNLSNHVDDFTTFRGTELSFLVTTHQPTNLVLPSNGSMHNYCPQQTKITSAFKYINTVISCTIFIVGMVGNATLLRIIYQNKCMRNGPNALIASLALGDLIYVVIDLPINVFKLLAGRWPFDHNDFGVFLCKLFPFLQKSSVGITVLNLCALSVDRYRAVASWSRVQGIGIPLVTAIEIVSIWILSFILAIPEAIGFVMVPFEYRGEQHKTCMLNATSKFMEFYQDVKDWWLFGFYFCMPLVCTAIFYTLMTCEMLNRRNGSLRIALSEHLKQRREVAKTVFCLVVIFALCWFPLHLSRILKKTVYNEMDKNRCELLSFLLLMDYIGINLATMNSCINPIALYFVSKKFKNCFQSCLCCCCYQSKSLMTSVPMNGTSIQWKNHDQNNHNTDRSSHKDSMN
Method: as §1, §2, §3

[5] = test system: attachment of neutrophils to colonic submucosal venules; conditions: inflammatory bowel disease; Anthoni et al. 2006; cited from earlier work

| Structure (SMILES) | percent of prematurely delivered pups ([1]; E15.5 mice, LPS 50 mg/kg, 50 mg/kg ip 10 hours after LPS, PBS control 39.7) [%] | mice that delivered prematurely ([1]; E15.5 mice, LPS 50 mg/kg, 50 mg/kg ip 10 hours after LPS, control 11 out of 11) | control of premature labor and delivery ([1]; LPS followed by compound versus LPS followed by vehicle) | prevention of premature expulsion of pups ([1]; LPS followed by compound versus LPS followed by vehicle, P<0.0001) | average delivery time (T) ([1]; the six treated mice that delivered, LPS 50 mg/kg, PBS control T10.9+/−0.61, p<0.0001) [h] | craniofacial anomalies in pups ([1]; transient exposure, late in gestation) | melting point [°C] | ratio of IC50 for the endothelin B receptor to IC50 for the endothelin A receptor [2] | effect on the ET-1-induced rise of BALF neutrophils (words) [3] | effect on the ET-1-induced rise of BALF neutrophils (words) ([3]; listed as ETA-RA) | effect on the ET-1-induced rise of BALF neutrophils (words) ([3]; listed as HJP-272) | IC50 [4] [nM] | attachment of neutrophils to colonic submucosal venules [5] |
| --- | --- | --- | --- | --- | --- | --- | --- | --- | --- | --- | --- | --- | --- |
| CCc1cc2c(cc1Cn1c(C(=O)O)c(Cc3cccc(C(=O)O)c3)c(=O)c3cc(O)ccc31)OCO2 [HJP272, 3-(3-carboxybenzyl)-1-((6-ethylbenzo[d][1,3]dioxol-5-yl)methyl)-6-hydroxy-4-oxo-1,4-dihydroquinoline-2-carboxylic acid] | 30.0 | six out of eight | controlled preterm labor and delivery in our mouse model of infection-associated preterm labor very effectively; also recorded: significantly better control of premature delivery | significantly greater prevention of premature expulsion of pups | 15.0 ± 1.8 | None of the pups in the work presented here demonstrated such abnormalities | 206 to 208 | 219.2 | reversed | reversed this effect | reversed | 70.1 |  |
| COc1ccccc1Oc1c(NS(=O)(=O)c2ccc(C(C)(C)C)cc2)nc(-c2ncccn2)nc1OCCO [bosentan] |  |  |  |  |  |  |  |  |  |  |  |  | markedly reduced attachment |

Source: patent US20090143426A1, “Synthesis of 1,3,6-trisubstituted-2-carboxyquinol-4-ones as selective ET A antagonists and their use as medicaments” (priority 2007, published 2009)
